Measured values published in PMC6821655, “Marine Archaeon Methanosarcina acetivorans Enhances Polyphosphate Metabolism Under Persistent Cadmium Stress” (Frontiers in Microbiology, 2019).

Molecular target: T1, Ma-PPK (Methanosarcina acetivorans, UniProt Q8TUI6)
T1 construct: recombinant full-length, heterologously overexpressed and purified; gene product 2187 bp (about 728 residues), 81 kDa; tag and host only in supplement
Assay: polyphosphate synthesis, toluidine blue absorbance at […] nm
Format: biochemical
Settings: variable Mg-ATP; trimethylsilyl polyP; 37 °C; Km given as unchanged with or without 120 mM K+; read-out: KmATP

T1 sequence (Q8TUI6 entry or part of it): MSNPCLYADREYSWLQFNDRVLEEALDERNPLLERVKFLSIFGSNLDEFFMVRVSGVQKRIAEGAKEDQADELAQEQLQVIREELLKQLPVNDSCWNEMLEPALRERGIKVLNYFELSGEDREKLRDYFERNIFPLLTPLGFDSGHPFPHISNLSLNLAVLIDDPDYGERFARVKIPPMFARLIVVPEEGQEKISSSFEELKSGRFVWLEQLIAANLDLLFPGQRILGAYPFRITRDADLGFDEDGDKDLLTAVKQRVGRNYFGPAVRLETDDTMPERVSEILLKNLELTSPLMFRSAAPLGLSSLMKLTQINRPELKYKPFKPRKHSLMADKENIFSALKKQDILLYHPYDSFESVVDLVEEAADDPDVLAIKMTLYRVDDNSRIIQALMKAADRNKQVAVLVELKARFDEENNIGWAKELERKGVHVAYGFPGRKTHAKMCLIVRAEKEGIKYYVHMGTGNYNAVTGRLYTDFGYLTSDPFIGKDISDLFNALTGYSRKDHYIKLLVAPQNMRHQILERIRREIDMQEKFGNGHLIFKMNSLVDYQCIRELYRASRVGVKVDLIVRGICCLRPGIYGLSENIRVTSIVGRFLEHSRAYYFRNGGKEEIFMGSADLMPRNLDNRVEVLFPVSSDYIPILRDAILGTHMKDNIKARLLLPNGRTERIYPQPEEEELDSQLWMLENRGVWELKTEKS

Km: 1400 µM
SMILES: Nc1ncnc2c1ncn2[C@@H]1O[C@H](COP(=O)(O)OP(=O)(O)OP(=O)(O)O)[C@@H](O)[C@H]1O [ATP]
